From patent publication US9695155B2, “Herbicidal substituted pyrimidinyloxy benzene compounds” (E. I. DU PONT DE NEMOURS AND COMPANY, priority 2013, dated 2017)

What was measured:
oilseed rape = assay: Test D postemergence; assay type: in vivo, Brassica napus; settings: Brassica napus, post-emergence; for plant injury at 16 g/ha: 16 g ai/ha, scale 0-100, read-out: Plant response rating, Oilseed Rape; for plant injury at 31 g/ha: 31 g ai/ha; for plant injury at 31 g/ha / plant injury at 62 g/ha / plant injury at 125 g/ha: scale 0 to 100 (0 no effect, 100 complete control), read-out: Plant response rating, Oilseed Rape; for plant injury at 62 g/ha: 62 g ai/ha; for plant injury at 125 g/ha: 125 g ai/ha
How it was run: (§1)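 Greenhouse herbicide screen. Sowing into silt loam for preemergence application; foliar application to 2–18 cm seedlings in potting mix for postemergence. 0–100 visual control rating after 7–21 d.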

kochia = assay: Test D preemergence; assay type: in vivo, Kochia scoparia; settings: Bassia scoparia, pre-emergence; for pest or weed control at 16 g/ha: 16 g ai/ha, scale 0 (no effect) to 100 (complete control), read-out: Plant response rating, Kochia; for pest or weed control at 31 g/ha: 31 g ai/ha; for pest or weed control at 31 g/ha / pest or weed control at 62 g/ha / pest or weed control at 125 g/ha: scale 0-100, read-out: Plant response rating, Kochia; for pest or weed control at 62 g/ha: 62 g ai/ha; for pest or weed control at 125 g/ha: 125 g ai/ha
How it was run: as §1

canarygrass [1] = assay: Test D preemergence; assay type: in vivo, Phalaris minor; settings: Phalaris minor, pre-emergence; for pest or weed control at 16 g/ha: 16 g ai/ha, scale 0 (no effect) to 100 (complete control), read-out: Plant response rating, Canarygrass; for pest or weed control at 31 g/ha: 31 g ai/ha; for pest or weed control at 31 g/ha / pest or weed control at 62 g/ha / pest or weed control at 125 g/ha: scale 0-100, read-out: Plant response rating, Canarygrass; for pest or weed control at 62 g/ha: 62 g ai/ha; for pest or weed control at 125 g/ha: 125 g ai/ha
How it was run: as §1

lambsquarters = assay: Test D postemergence; assay type: in vivo, Chenopodium album; settings: Chenopodium album, post-emergence; for pest or weed control at 16 g/ha: 16 g ai/ha, scale 0-100, read-out: Plant response rating, Lambsquarters; for pest or weed control at 31 g/ha: 31 g ai/ha; for pest or weed control at 31 g/ha / pest or weed control at 62 g/ha / pest or weed control at 125 g/ha: scale 0 to 100 (0 no effect, 100 complete control), read-out: Plant response rating, Lambsquarters; for pest or weed control at 62 g/ha: 62 g ai/ha; for pest or weed control at 125 g/ha: 125 g ai/ha
How it was run: as §1

pigweed = assay: Test D postemergence; assay type: in vivo, Amaranthus retroflexus; settings: Amaranthus retroflexus, post-emergence; for pest or weed control at 16 g/ha: 16 g ai/ha, scale 0-100, read-out: Plant response rating, Pigweed; for pest or weed control at 31 g/ha: 31 g ai/ha; for pest or weed control at 31 g/ha / pest or weed control at 62 g/ha / pest or weed control at 125 g/ha: scale 0 to 100 (0 no effect, 100 complete control), read-out: Plant response rating, Pigweed; for pest or weed control at 62 g/ha: 62 g ai/ha; for pest or weed control at 125 g/ha: 125 g ai/ha
How it was run: as §1

chickweed = assay: Test D postemergence; assay type: in vivo, Stellaria media; settings: Stellaria media, post-emergence; for pest or weed control at 16 g/ha: 16 g ai/ha, scale 0-100, read-out: Plant response rating, Chickweed; for pest or weed control at 31 g/ha: 31 g ai/ha; for pest or weed control at 31 g/ha / pest or weed control at 62 g/ha / pest or weed control at 125 g/ha: scale 0 to 100 (0 no effect, 100 complete control), read-out: Plant response rating, Chickweed; for pest or weed control at 62 g/ha: 62 g ai/ha; for pest or weed control at 125 g/ha: 125 g ai/ha
How it was run: as §1

green foxtail = assay: Test D postemergence; assay type: in vivo, Setaria viridis; settings: Setaria viridis, post-emergence; for pest or weed control at 16 g/ha: 16 g ai/ha, scale 0-100, read-out: Plant response rating, Foxtail, Green; for pest or weed control at 31 g/ha: 31 g ai/ha; for pest or weed control at 31 g/ha / pest or weed control at 62 g/ha / pest or weed control at 125 g/ha: scale 0 to 100 (0 no effect, 100 complete control), read-out: Plant response rating, Foxtail, Green; for pest or weed control at 62 g/ha: 62 g ai/ha; for pest or weed control at 125 g/ha: 125 g ai/ha
How it was run: as §1

wild buckwheat = assay: Test D postemergence; assay type: in vivo, Polygonum convolvulus; settings: Fallopia convolvulus, post-emergence, Postemergence, scale 0 to 100 (0 no effect, 100 complete control), read-out: Plant response rating, Buckwheat, Wild; for pest or weed control at 16 g/ha: 16 g ai/ha; for pest or weed control at 31 g/ha: 31 g ai/ha; for pest or weed control at 62 g/ha: 62 g ai/ha; for pest or weed control at 125 g/ha: 125 g ai/ha
How it was run: as §1

wild radish = assay: Test D preemergence; assay type: in vivo, Raphanus raphanistrum; settings: Raphanus raphanistrum, pre-emergence; for pest or weed control at 16 g/ha: 16 g ai/ha; for pest or weed control at 16 g/ha / pest or weed control at 31 g/ha: scale 0 (no effect) to 100 (complete control), read-out: Plant response rating, Radish, Wild; for pest or weed control at 31 g/ha: 31 g ai/ha; for pest or weed control at 62 g/ha: 62 g ai/ha; for pest or weed control at 62 g/ha / pest or weed control at 125 g/ha: scale 0-100, read-out: Plant response rating, Radish, Wild; for pest or weed control at 125 g/ha: 125 g ai/ha
How it was run: as §1

canarygrass [2] = assay: Test D postemergence; assay type: in vivo, Phalaris minor; settings: Phalaris minor, post-emergence; for pest or weed control at 16 g/ha: 16 g ai/ha, scale 0-100, read-out: Plant response rating, Canarygrass; for pest or weed control at 31 g/ha: 31 g ai/ha; for pest or weed control at 31 g/ha / pest or weed control at 62 g/ha / pest or weed control at 125 g/ha: scale 0 to 100 (0 no effect, 100 complete control), read-out: Plant response rating, Canarygrass; for pest or weed control at 62 g/ha: 62 g ai/ha; for pest or weed control at 125 g/ha: 125 g ai/ha
How it was run: as §1

SMILES | plant injury at 16 g/ha (oilseed rape) | plant injury at 31 g/ha (oilseed rape) | plant injury at 62 g/ha (oilseed rape) | plant injury at 125 g/ha (oilseed rape) | pest or weed control at 16 g/ha (kochia) | pest or weed control at 31 g/ha (kochia) | pest or weed control at 62 g/ha (kochia) | pest or weed control at 125 g/ha (kochia) | pest or weed control at 16 g/ha (canarygrass [1]) | pest or weed control at 31 g/ha (canarygrass [1]) | pest or weed control at 62 g/ha (canarygrass [1]) | pest or weed control at 125 g/ha (canarygrass [1]) | pest or weed control at 16 g/ha (lambsquarters) | pest or weed control at 31 g/ha (lambsquarters) | pest or weed control at 62 g/ha (lambsquarters) | pest or weed control at 125 g/ha (lambsquarters) | pest or weed control at 16 g/ha (pigweed) | pest or weed control at 31 g/ha (pigweed) | pest or weed control at 62 g/ha (pigweed) | pest or weed control at 125 g/ha (pigweed) | further results
FC(F)(F)COc1cnn(-c2ccccc2Oc2ncc(Cl)cn2)c1 [Compound 138, 5-chloro-2-[2-[4-(2,2,2-trifluoroethoxy)-1H-pyrazol-1-yl]phenoxy]pyrimidine] | 70% | 70% | 75% | 75% | 20% | 20% | 35% | 55% | 10% | 10% | 20% | 40% | 55% | 60% | 60% | 60% | 65% | 70% | 90% | 90% | pest or weed control at 16 g/ha (chickweed): 20%; pest or weed control at 31 g/ha (chickweed): 20%; pest or weed control at 62 g/ha (chickweed): 40%; pest or weed control at 125 g/ha (chickweed): 55%; pest or weed control at 16 g/ha (green foxtail): 20%; pest or weed control at 31 g/ha (green foxtail): 20%; pest or weed control at 62 g/ha (green foxtail): 20%; pest or weed control at 125 g/ha (green foxtail): 30%; pest or weed control at 16 g/ha (wild buckwheat): 65%; pest or weed control at 31 g/ha (wild buckwheat): 70%; pest or weed control at 62 g/ha (wild buckwheat): 65%; pest or weed control at 125 g/ha (wild buckwheat): 80%; pest or weed control at 16 g/ha (wild radish): 90%; pest or weed control at 31 g/ha (wild radish): 85%; pest or weed control at 62 g/ha (wild radish): 70%; pest or weed control at 125 g/ha (wild radish): 85%; pest or weed control at 16 g/ha (canarygrass [2]): 5%; pest or weed control at 31 g/ha (canarygrass [2]): 10%; pest or weed control at 62 g/ha (canarygrass [2]): 10%; pest or weed control at 125 g/ha (canarygrass [2]): 15%
FC(F)(F)c1cn(-c2ccccc2Oc2ncc(Cl)cn2)nn1 [Compound 166, 5-chloro-2-[2-[4-(trifluoromethyl)-1H-1,2,3-triazol-1-yl]phenoxy]pyrimidine] | 60% | 65% | 95% | 100% | 35% | 65% | 95% | 100% | 30% | 50% | 70% | 100% | 80% | 90% | 95% | 95% | 80% | 85% | 95% | 95% | pest or weed control at 16 g/ha (chickweed): 55%; pest or weed control at 31 g/ha (chickweed): 65%; pest or weed control at 62 g/ha (chickweed): 80%; pest or weed control at 125 g/ha (chickweed): 90%; pest or weed control at 16 g/ha (green foxtail): 10%; pest or weed control at 31 g/ha (green foxtail): 15%; pest or weed control at 62 g/ha (green foxtail): 20%; pest or weed control at 125 g/ha (green foxtail): 35%; pest or weed control at 16 g/ha (wild buckwheat): 70%; pest or weed control at 31 g/ha (wild buckwheat): 95%; pest or weed control at 62 g/ha (wild buckwheat): 95%; pest or weed control at 125 g/ha (wild buckwheat): 100%; pest or weed control at 16 g/ha (wild radish): 55%; pest or weed control at 31 g/ha (wild radish): 80%; pest or weed control at 62 g/ha (wild radish): 100%; pest or weed control at 125 g/ha (wild radish): 100%; pest or weed control at 16 g/ha (canarygrass [2]): 20%; pest or weed control at 31 g/ha (canarygrass [2]): 35%; pest or weed control at 62 g/ha (canarygrass [2]): 50%; pest or weed control at 125 g/ha (canarygrass [2]): 55%
Fc1cccc(Oc2ncc(Cl)cn2)c1-n1cc(Br)cn1 [Compound 178, 2-[2-(4-bromo-1H-pyrazol-1-yl)-3-fluorophenoxy]-5-chloropyrimidine] | 60% | 65% | 80% | 90% | 0% | 35% | 85% | 100% | 10% | 60% | 60% | 95% | 65% | 70% | 75% | 85% | 75% | 80% | 85% | 90% | pest or weed control at 16 g/ha (chickweed): 55%; pest or weed control at 31 g/ha (chickweed): 60%; pest or weed control at 62 g/ha (chickweed): 65%; pest or weed control at 125 g/ha (chickweed): 75%; pest or weed control at 16 g/ha (green foxtail): 15%; pest or weed control at 31 g/ha (green foxtail): 20%; pest or weed control at 62 g/ha (green foxtail): 30%; pest or weed control at 125 g/ha (green foxtail): 35%; pest or weed control at 16 g/ha (wild buckwheat): 65%; pest or weed control at 31 g/ha (wild buckwheat): 75%; pest or weed control at 62 g/ha (wild buckwheat): 75%; pest or weed control at 125 g/ha (wild buckwheat): 85%; pest or weed control at 16 g/ha (wild radish): 55%; pest or weed control at 31 g/ha (wild radish): 90%; pest or weed control at 62 g/ha (wild radish): 100%; pest or weed control at 125 g/ha (wild radish): 100%; pest or weed control at 16 g/ha (canarygrass [2]): 5%; pest or weed control at 31 g/ha (canarygrass [2]): 15%; pest or weed control at 62 g/ha (canarygrass [2]): 20%; pest or weed control at 125 g/ha (canarygrass [2]): 35%
